{
  "source": "patent US8278105B2",
  "about": "“Induction, propagation and isolation of liver progenitor cells” (University of Southern California, priority 2008, dated 2012)",
  "tested_on": "HES2 or HES3 cells",
  "test": "3i-induction of hepatocyte-like cells from human ES cells; dosages of medium components examined",
  "format": "cell-based",
  "experimental": "HES2 or 3 cells were cultured for 5 days on MEF-feeders with 20% FCS hES medium in organ culture dishes. […] Cells were detached as clumps by collagenase and feeder cells were removed by sedimentation in DMEM/F-12 medium.\nThey were subsequently propagated using 3i or Kubota's medium following enzymatic dissection.\nHES2 or 3 cells were cultured 5 days on MEF-feeders with 20% FCS hES medium in organ culture dishes.\nCells were detached as clumps by collagenase and feeder cells were removed by sedimentation in DMEM/F-12 medium.",
  "data": [
    {"smiles": "O=C(NOCC1CC1)c1ccc(F)c(F)c1Nc1ccc(I)cc1Cl", "note": "[PD184352]", "values": [
      {"measurement": "effect on hepatic differentiation", "setting": "PD184352 0.4 μM, in combination of SU5402, PD184352 and CHIR99021", "value": "decreased hepatic differentiation and increased trophectodermal cells"},
      {"measurement": "effect on hepatic differentiation", "setting": "PD184352 0.8 μM, in combination of SU5402, PD184352 and CHIR99021", "value": "most efficient"},
      {"measurement": "effect on hepatic differentiation", "setting": "PD184352 1.6 μM, in combination of SU5402, PD184352 and CHIR99021", "value": "no difference from 0.8 μM"}
    ]},
    {"smiles": "O=C(NOC[C@H](O)CO)c1ccc(F)c(F)c1Nc1ccc(I)cc1F", "note": "[PD0325901]", "values": [
      {"measurement": "efficiency of hepatic differentiation compared with 3i", "setting": "PD0325901 0.4 μM, in combination of PD0325901 and CHIR99021", "value": "no difference from 3i"},
      {"measurement": "efficiency of hepatic differentiation compared with 3i", "setting": "PD0325901 0.8 μM, in combination of PD0325901 and CHIR99021", "value": "more efficient than 3i"},
      {"measurement": "efficiency of hepatic differentiation", "setting": "PD0325901 1.6 μM, in combination of PD0325901 and CHIR99021", "value": "no difference from 0.8 μM"}
    ]},
    {"smiles": "c1cc(-c2cnn3cc(-c4ccc(OCCN5CCCCC5)cc4)cnc23)ccn1", "note": "[Dorsomorphin]", "values": [
      {"measurement": "toxicity to the culture", "setting": "Dorsomorphin 5 μM, in combination of PD0325901, CHIR99021 and Dorsomorphin", "value": "toxic"}
    ]},
    {"smiles": "Cc1c[nH]c(/C=C2\\C(=O)Nc3ccccc32)c1CCC(=O)O", "note": "[SU5402, 3-[3-(2-Carboxyethyl)-4-methylpyrrol-2-methylidenyl]-2-indolinone]", "values": [
      {"measurement": "effect on hepatic differentiation", "setting": "SU5402 1 μM, in combination of SU5402, PD184352 and CHIR99021", "value": "decreased hepatic differentiation and increased trophectodermal/neural cells"},
      {"measurement": "effect on hepatic differentiation", "setting": "SU5402 2 μM, in combination of SU5402, PD184352 and CHIR99021", "value": "most efficient"},
      {"measurement": "toxicity to the culture", "setting": "SU5402 4 μM, in combination of SU5402, PD184352 and CHIR99021", "value": "toxic"}
    ]}
  ]
}
